Tests used:
JAK1/TYK2 = JAK1/TYK2 (Homo sapiens, UniProt P23458+P29597); test: Inhibition of JAK1/TYK2 in human M07E cells assessed as reduction of IFN alpha stimulated STAT phosphorylation preincubated for 30 mins followed by IFN alpha stimulation for 15 mins by flow cytometry method; type: cell-based
JAK3/JAK1 [1] = molecular target: T1, JAK3/JAK1 (Homo sapiens, UniProt P23458+P52333); type: tissue-based, Blood
Description: Inhibition of JAK1/JAK3 in human blood assessed as reduction of IL-2 stimulated STAT phosphorylation preincubated for 30 mins followed by IL-2 stimulation for 15 mins by flow cytometry method

[2] = molecular target: Tyrosine-protein kinase JAK1 (Homo sapiens, UniProt P23458); test: Inhibition of GST-fused JAK1 (866 to 1154 residues) (unknown origin) using FITC-AhxKKSRGDYMTMQIG-NH2 peptide as substrate incubated for 60 mins in presence of ATP by Janus kinase assay
Sequence of Tyrosine-protein kinase JAK1 (P23458 whole entry, the tested form may be a part): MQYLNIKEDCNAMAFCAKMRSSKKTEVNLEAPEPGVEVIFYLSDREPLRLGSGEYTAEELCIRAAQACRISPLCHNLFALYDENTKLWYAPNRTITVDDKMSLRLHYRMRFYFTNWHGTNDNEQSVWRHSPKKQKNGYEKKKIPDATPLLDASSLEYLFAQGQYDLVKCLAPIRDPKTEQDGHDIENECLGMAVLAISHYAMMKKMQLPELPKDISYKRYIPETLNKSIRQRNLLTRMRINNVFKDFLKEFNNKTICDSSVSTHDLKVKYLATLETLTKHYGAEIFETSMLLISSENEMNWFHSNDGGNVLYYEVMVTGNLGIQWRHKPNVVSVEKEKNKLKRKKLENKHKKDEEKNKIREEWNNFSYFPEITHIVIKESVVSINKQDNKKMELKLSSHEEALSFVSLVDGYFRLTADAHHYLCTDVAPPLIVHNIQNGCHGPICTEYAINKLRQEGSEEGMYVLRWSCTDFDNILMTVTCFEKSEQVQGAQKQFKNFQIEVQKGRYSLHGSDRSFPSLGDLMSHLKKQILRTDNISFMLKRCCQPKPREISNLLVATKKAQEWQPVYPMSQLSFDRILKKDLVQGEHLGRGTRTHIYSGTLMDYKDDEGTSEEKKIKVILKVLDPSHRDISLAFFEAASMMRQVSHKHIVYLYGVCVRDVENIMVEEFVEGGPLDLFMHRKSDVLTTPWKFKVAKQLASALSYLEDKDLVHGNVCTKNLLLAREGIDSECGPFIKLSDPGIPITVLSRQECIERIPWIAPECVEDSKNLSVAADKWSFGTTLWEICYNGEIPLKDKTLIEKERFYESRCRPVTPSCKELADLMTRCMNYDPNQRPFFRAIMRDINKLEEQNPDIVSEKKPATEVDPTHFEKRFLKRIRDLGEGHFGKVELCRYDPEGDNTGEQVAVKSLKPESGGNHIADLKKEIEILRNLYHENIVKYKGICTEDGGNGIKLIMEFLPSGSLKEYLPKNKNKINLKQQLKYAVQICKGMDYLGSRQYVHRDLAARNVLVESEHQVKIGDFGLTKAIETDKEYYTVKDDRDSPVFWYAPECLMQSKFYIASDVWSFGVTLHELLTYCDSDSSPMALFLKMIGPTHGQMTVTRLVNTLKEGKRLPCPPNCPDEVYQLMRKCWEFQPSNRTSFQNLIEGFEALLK

[3] = molecular target: Tyrosine-protein kinase JAK2 (Homo sapiens, UniProt O60674); test: Inhibition of GST-fused JAK2 (808 to 1132 residues) (unknown origin) using Carboxyfluorescein-Ahx-GGEEEEYFELVKKKK peptide as substrate incubated for 60 mins in presence of ATP by Janus kinase assay
Sequence of Tyrosine-protein kinase JAK2 (O60674 whole entry, the tested form may be a part): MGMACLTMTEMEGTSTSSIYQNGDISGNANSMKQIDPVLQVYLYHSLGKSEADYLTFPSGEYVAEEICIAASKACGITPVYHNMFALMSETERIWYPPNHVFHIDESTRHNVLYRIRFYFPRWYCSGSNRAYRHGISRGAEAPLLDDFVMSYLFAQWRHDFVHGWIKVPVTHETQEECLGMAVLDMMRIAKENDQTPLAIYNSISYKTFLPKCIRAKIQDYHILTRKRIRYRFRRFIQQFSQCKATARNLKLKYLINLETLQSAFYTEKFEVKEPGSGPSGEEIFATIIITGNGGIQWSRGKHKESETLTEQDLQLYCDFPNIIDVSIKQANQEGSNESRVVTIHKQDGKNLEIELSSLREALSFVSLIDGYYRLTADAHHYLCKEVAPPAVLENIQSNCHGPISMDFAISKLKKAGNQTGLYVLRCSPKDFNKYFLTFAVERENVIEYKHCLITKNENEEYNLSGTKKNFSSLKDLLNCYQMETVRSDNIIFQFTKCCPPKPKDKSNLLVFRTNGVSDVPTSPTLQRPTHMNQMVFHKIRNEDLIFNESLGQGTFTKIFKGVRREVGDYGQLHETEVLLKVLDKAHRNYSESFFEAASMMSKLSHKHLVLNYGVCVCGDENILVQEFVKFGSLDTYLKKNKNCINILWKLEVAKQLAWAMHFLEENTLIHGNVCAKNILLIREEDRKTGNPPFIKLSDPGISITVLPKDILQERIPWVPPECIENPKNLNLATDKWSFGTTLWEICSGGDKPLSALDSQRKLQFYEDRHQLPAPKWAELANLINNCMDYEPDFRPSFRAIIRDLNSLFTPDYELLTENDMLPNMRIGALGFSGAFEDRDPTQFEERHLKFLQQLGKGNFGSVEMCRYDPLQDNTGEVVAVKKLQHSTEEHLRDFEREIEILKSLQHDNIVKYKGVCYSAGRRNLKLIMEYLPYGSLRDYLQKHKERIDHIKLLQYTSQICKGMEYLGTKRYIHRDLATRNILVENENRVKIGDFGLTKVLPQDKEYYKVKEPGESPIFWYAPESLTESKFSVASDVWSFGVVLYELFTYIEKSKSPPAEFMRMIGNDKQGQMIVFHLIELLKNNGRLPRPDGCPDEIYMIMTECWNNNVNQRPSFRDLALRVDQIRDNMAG

[4] = molecular target: T2, Tyrosine-protein kinase JAK3 (Homo sapiens, UniProt P52333); test: Inhibition of GST-fused JAK3 (811 to 1124 residues) (unknown origin) using Carboxyfluorescein-Ahx-GGEEEEYFELVKKKK peptide as substrate incubated for 60 mins in presence of ATP by Janus kinase assay
T2 sequence (P52333 whole entry): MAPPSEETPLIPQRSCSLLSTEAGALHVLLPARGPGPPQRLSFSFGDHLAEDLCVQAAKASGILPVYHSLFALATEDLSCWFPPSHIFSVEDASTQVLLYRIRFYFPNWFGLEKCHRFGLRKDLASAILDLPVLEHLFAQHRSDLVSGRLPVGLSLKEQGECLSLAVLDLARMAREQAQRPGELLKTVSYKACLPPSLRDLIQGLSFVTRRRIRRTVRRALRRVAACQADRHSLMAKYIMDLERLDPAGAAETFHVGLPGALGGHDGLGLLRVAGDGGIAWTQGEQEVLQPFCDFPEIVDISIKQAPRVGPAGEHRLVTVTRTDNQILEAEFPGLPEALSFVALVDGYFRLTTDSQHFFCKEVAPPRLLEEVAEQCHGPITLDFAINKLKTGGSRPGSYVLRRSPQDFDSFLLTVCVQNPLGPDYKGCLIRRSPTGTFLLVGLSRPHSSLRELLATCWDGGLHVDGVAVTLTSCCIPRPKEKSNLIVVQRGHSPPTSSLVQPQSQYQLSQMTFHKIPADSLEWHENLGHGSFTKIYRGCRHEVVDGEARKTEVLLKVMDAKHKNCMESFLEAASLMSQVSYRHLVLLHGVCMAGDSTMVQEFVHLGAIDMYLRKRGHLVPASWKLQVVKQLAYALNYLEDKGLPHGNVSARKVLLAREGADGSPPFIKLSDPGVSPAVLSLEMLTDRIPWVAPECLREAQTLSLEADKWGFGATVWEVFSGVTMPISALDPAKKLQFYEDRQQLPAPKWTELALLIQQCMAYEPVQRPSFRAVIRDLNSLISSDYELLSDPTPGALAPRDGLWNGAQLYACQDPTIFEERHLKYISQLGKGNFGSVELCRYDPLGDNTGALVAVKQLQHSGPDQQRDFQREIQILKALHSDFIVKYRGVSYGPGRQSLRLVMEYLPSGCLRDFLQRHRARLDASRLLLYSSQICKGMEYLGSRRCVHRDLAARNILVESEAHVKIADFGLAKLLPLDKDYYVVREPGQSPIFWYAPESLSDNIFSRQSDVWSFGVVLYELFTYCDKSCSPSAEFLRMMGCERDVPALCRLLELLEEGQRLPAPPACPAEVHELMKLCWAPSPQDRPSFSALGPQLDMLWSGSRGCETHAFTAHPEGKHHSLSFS

[5] = molecular target: Non-receptor tyrosine-protein kinase TYK2 (Homo sapiens, UniProt P29597); test: Inhibition of GST-fused Tyk2 (888 to 1187 residues) (unknown origin) using FITC-AhxKKSRGDYMTMQIG-NH2 peptide as substrate incubated for 60 mins in presence of ATP by Janus kinase assay
Sequence of Non-receptor tyrosine-protein kinase TYK2 (P29597 whole entry, the tested form may be a part): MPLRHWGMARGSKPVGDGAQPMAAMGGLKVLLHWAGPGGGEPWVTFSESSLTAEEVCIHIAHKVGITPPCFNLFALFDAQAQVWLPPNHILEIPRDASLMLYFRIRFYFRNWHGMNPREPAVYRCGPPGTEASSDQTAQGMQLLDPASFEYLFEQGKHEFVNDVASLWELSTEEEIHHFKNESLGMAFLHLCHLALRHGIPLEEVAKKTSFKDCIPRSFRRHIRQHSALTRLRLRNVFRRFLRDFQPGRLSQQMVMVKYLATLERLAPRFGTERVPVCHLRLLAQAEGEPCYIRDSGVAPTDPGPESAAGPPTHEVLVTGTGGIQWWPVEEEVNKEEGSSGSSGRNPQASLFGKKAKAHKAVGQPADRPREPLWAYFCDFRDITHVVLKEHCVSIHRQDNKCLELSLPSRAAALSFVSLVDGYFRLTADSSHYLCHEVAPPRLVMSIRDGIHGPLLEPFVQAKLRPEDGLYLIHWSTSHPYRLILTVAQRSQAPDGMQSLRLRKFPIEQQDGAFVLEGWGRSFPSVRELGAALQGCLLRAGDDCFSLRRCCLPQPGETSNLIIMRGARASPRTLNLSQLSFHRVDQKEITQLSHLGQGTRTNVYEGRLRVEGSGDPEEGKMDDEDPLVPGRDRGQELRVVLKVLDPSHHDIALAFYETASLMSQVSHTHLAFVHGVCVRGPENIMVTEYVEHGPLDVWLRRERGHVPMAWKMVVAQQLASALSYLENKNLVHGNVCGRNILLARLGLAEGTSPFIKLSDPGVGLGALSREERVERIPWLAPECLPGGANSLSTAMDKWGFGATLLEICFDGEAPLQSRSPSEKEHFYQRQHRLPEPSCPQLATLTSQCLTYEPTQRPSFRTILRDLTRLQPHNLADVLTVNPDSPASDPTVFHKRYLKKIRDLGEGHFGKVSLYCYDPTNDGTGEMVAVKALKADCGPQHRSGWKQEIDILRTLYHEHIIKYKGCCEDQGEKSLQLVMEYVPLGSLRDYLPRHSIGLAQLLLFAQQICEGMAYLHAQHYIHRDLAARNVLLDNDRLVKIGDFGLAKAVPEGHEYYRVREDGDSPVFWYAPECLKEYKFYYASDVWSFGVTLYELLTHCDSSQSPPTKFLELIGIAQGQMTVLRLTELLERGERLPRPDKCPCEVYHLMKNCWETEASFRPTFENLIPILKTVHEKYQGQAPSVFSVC

JAK3/JAK1 [6] = molecular target: T1, JAK3/JAK1; test: Inhibition of JAK1/JAK3 in human M07E cells assessed as reduction of IL-15 stimulated STAT phosphorylation preincubated for 30 mins followed by IL-15 stimulation for 15 mins by flow cytometry method; type: cell-based
[7] = Dissociation constant, pKa of compound; type: physicochemical
in vitro = conditions: human, liver microsomes
Description: Intrinsic clearance in human liver microsomes

[8] = molecular target: Glycogen synthase kinase-3 beta (Homo sapiens, UniProt P49841); test: Inhibition of GSK3B (unknown origin)
Sequence of Glycogen synthase kinase-3 beta (P49841 whole entry): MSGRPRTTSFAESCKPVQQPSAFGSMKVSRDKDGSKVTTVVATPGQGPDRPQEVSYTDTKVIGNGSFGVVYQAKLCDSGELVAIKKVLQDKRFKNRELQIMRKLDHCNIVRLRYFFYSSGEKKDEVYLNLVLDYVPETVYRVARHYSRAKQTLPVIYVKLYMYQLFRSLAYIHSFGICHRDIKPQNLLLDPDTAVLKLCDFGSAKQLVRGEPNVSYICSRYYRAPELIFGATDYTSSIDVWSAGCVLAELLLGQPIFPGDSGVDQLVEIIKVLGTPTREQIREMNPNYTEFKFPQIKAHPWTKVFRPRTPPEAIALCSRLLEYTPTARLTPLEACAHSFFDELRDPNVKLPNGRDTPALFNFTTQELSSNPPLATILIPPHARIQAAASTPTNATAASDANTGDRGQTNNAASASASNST

[9] = molecular target: Vascular endothelial growth factor receptor 2 (Homo sapiens, UniProt P35968); test: Inhibition of KDR (unknown origin)
Aurora kinase A = molecular target: T3, Aurora kinase A (Homo sapiens, UniProt O14965); test: Inhibition of AuroraA (unknown origin)
T3 sequence (O14965 whole entry): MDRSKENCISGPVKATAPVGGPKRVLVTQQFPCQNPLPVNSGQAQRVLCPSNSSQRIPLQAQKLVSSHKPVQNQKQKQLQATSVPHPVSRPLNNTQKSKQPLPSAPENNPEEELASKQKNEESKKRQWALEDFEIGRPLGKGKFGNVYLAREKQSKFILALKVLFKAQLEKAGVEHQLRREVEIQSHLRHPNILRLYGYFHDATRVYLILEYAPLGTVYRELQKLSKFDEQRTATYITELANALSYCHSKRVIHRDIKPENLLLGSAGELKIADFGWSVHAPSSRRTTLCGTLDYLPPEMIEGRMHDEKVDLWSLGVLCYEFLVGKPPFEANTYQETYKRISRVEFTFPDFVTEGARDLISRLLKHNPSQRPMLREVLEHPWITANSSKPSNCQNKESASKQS

[10] = molecular target: T4, Interleukin-1 receptor-associated kinase 4 (Homo sapiens, UniProt Q9NWZ3); test: Inhibition of IRAK4 (unknown origin)
T4 sequence (Q9NWZ3 whole entry): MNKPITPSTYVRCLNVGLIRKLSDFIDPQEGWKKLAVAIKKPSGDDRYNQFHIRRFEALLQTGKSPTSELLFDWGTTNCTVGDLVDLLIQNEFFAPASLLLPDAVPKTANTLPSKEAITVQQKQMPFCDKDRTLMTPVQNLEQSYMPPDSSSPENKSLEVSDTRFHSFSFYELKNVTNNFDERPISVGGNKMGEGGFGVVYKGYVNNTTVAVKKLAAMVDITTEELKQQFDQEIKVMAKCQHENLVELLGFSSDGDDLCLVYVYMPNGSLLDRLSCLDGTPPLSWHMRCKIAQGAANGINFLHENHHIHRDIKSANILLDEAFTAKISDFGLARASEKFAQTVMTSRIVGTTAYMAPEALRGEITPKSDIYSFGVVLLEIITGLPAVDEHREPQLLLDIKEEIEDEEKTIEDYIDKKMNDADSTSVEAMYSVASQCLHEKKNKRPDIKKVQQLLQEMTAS

[11] = molecular target: T5, Receptor-type tyrosine-protein kinase FLT3 (Homo sapiens, UniProt P36888); test: Inhibition of FLT3 (unknown origin)
T5 sequence (P36888 whole entry): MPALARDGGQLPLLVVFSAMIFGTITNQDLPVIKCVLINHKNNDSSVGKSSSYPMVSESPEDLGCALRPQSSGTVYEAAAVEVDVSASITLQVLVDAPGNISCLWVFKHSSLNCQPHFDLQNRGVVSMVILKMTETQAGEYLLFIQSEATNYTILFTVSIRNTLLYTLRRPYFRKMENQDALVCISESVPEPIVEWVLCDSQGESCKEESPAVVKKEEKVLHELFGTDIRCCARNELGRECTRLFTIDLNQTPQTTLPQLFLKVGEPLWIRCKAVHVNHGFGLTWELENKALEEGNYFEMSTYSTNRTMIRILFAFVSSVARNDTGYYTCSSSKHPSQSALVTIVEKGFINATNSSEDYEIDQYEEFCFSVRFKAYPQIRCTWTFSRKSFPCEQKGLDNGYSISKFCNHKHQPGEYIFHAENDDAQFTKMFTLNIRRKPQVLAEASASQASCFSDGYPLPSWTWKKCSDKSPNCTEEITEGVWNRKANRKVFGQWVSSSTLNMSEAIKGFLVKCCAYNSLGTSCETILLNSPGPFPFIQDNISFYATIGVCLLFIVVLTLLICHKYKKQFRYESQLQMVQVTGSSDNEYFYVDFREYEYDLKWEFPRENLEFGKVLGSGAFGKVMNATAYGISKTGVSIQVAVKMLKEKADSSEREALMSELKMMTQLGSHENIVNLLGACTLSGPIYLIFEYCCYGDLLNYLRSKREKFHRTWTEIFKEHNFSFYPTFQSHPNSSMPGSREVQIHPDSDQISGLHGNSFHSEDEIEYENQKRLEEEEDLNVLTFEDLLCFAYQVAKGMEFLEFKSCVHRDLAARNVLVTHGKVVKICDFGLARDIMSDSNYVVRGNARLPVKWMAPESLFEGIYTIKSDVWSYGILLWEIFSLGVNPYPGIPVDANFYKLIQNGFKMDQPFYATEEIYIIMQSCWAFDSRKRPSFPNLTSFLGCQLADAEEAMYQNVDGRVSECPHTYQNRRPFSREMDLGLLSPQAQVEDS

[12] = molecular target: T6, Serine/threonine-protein kinase 4 (Homo sapiens, UniProt Q13043); test: Inhibition of STK4 (unknown origin)
T6 sequence (Q13043 whole entry): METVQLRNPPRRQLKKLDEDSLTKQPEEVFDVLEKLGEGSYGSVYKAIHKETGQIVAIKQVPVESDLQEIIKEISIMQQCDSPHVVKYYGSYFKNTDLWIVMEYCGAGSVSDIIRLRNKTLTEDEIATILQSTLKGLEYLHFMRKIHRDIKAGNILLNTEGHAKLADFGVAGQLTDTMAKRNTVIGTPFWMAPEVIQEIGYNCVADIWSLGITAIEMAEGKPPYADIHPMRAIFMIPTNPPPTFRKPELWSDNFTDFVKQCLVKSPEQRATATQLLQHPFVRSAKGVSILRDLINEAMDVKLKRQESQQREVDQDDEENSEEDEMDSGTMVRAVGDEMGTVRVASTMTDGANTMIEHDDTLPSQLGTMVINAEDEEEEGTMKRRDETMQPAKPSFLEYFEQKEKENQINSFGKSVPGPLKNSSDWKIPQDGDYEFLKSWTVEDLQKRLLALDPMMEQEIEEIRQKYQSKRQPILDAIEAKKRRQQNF

[13] = molecular target: Tyrosine-protein kinase Lck (Homo sapiens, UniProt P06239); test: Inhibition of LCK (unknown origin)
Sequence of Tyrosine-protein kinase Lck (P06239 whole entry): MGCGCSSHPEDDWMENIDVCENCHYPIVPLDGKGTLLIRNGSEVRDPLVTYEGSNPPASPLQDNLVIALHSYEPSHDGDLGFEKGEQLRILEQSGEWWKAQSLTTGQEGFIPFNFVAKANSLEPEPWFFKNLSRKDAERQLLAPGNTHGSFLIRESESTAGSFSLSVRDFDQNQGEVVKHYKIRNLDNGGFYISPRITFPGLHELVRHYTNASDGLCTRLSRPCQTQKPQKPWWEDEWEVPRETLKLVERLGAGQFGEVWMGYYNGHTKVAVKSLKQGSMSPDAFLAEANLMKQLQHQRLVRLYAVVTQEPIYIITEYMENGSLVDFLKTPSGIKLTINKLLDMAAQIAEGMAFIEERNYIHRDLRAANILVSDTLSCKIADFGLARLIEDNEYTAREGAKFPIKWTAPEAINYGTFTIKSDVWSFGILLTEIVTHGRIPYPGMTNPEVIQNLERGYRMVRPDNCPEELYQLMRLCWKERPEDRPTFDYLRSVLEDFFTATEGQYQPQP

[14] = Inhibition of p70S6K (unknown origin); parameters: species or system Homo sapiens

T1 sequence (P23458 whole entry, one chain of several, the tested form may be a part): as the sequence (P23458 whole entry, the tested form may be a part) above
Sequence of JAK1/TYK2 (P23458 whole entry): as the sequence (P23458 whole entry, the tested form may be a part) above
Sequence of JAK1/TYK2 (P29597 whole entry): as the sequence (P29597 whole entry, the tested form may be a part) above

Compound | IC50 (JAK1/TYK2) | IC50 (JAK3/JAK1 [1]) | IC50 [2] | IC50 [3] | IC50 [4] | IC50 [5] | IC50 (JAK3/JAK1 [6]) | pKa [7] | microsomal CLint (in vitro) | IC50 [8] | IC50 [9] | IC50 (Aurora kinase A) | IC50 [10] | IC50 [11] | IC50 [12] | IC50 [13] | IC50 [14]
COc1cccc(Nc2cc(Nc3ccccc3Cl)c(C(N)=O)cn2)n1 | 271 nM | 2170 nM | 103 nM | 76 nM | 89 nM | 77 nM | 169 nM | – | – | – | – | – | – | – | – | – | –
Cc1cccc(Nc2cc(Nc3ccccc3Cl)c(C(N)=O)cn2)n1 | – | – | – | – | – | 60 nM | – | 6.2 | – | – | – | – | – | – | – | – | –
CCOC(=O)Oc1cccc(Nc2cc(Nc3ccccc3Cl)c(C(N)=O)cn2)n1 | 71 nM | > 30000 nM | 131 nM | 52 nM | 76 nM | 59 nM | 116 nM | – | – | – | – | – | – | – | – | – | –
NC(=O)c1cnc(Nc2ccc(O)cn2)cc1Nc1ccccc1Cl | 290 nM | 525 nM | 14 nM | 20 nM | 20 nM | – | 218 nM | – | – | – | – | – | – | – | – | – | –
C[C@H]1CN(C(=O)CC#N)[C@]12CCN(c1ncnc3[nH]ccc13)C2 [DELGOCITINIB] | – | – | – | – | – | – | – | – | < 25 µL/min/mg | – | – | – | – | – | – | – | –
NC(=O)c1cnc(Nc2cccc(O)n2)cc1Nc1ccccc1Cl | > 10000 nM | > 30000 nM | 3270 nM | 3150 nM | 4560 nM | 2090 nM | > 10000 nM | – | – | > 2500 nM | > 2500 nM | > 2500 nM | > 2500 nM | > 2500 nM | > 2500 nM | > 2500 nM | > 2500 nM
